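Five compound concentrations were applied to cells in 96-well plates for 48 hours; endpoints were derived by simple linear interpolation of the resulting dose-response curve. TGI denotes the concentration required for complete inhibition of growth.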
Columns and labels:
Experiment in all cases: DTP human tumour cell line panel, 48 h
786-0 renal = system: 786-0 renal
A498 renal = system: A498 renal
A549 NSCLC = system: A549 NSCLC
CAKI-1 renal = system: CAKI-1 renal
COLO 205 colon = system: COLO 205 colon
EKVX NSCLC = system: EKVX NSCLC
HCT-15 colon = system: HCT-15 colon
HT29 colon = system: HT29 colon
M14 melanoma = system: M14 melanoma
NCI-H460 lung = system: NCI-H460 lung
NCI/ADR-RES ovarian = system: NCI/ADR-RES ovarian
PC-3 prostate = system: PC-3 prostate
SF-539 CNS = system: SF-539 CNS
SK-MEL-28 melanoma = system: SK-MEL-28 melanoma
SN12C renal = system: SN12C renal
SR leukemia = system: SR leukemia
U251 CNS = system: U251 CNS
UACC-257 melanoma = system: UACC-257 melanoma

## COC(=O)c1ccccc1/C=C1\Cc2cc3c(cc2C1=O)CCC3
786-0 renal
  TGI: > 100 µM
A498 renal
  TGI: > 100 µM
A549 NSCLC
  TGI: > 100 µM
CAKI-1 renal
  TGI: > 100 µM
COLO 205 colon
  TGI: > 100 µM
EKVX NSCLC
  TGI: > 100 µM
HCT-15 colon
  TGI: > 100 µM
HT29 colon
  TGI: > 100 µM
M14 melanoma
  TGI: > 100 µM
NCI-H460 lung
  TGI: > 100 µM
NCI/ADR-RES ovarian
  TGI: > 100 µM
PC-3 prostate
  TGI: > 100 µM
SF-539 CNS
  TGI: > 100 µM
SK-MEL-28 melanoma
  TGI: > 100 µM
SN12C renal
  TGI: > 100 µM
SR leukemia
  TGI: > 100 µM
U251 CNS
  TGI: > 100 µM
UACC-257 melanoma
  TGI: > 100 µM

## CC(C)(C)c1ccc(-c2nc3ccccc3c(=O)o2)cc1
786-0 renal
  TGI: > 100 µM
A498 renal
  TGI: > 100 µM
A549 NSCLC
  TGI: 86.6 µM
CAKI-1 renal
  TGI: > 100 µM
COLO 205 colon
  TGI: 78.7 µM
EKVX NSCLC
  TGI: > 100 µM
HCT-15 colon
  TGI: > 100 µM
HT29 colon
  TGI: > 100 µM
M14 melanoma
  TGI: > 100 µM
NCI-H460 lung
  TGI: > 100 µM
NCI/ADR-RES ovarian
  TGI: > 100 µM
PC-3 prostate
  TGI: > 100 µM
SF-539 CNS
  TGI: > 100 µM
SK-MEL-28 melanoma
  TGI: > 100 µM
SN12C renal
  TGI: > 100 µM
SR leukemia
  TGI: 54.2 µM
U251 CNS
  TGI: > 100 µM
UACC-257 melanoma
  TGI: > 100 µM

## CCc1ccc(CCC(=O)O)nc1
786-0 renal
  TGI: > 100 µM
A498 renal
  TGI: > 100 µM
A549 NSCLC
  TGI: > 100 µM
CAKI-1 renal
  TGI: > 100 µM
COLO 205 colon
  TGI: > 100 µM
EKVX NSCLC
  TGI: > 100 µM
HCT-15 colon
  TGI: > 100 µM
HT29 colon
  TGI: > 100 µM
M14 melanoma
  TGI: > 100 µM
NCI-H460 lung
  TGI: > 100 µM
NCI/ADR-RES ovarian
  TGI: > 100 µM
PC-3 prostate
  TGI: > 100 µM
SF-539 CNS
  TGI: > 100 µM
SK-MEL-28 melanoma
  TGI: > 100 µM
SN12C renal
  TGI: > 100 µM
SR leukemia
  TGI: > 100 µM
U251 CNS
  TGI: > 100 µM
UACC-257 melanoma
  TGI: > 100 µM

## Cn1c(=O)nc2n(CCO)ccnc-2c1=O
786-0 renal
  TGI: > 100 µM
A498 renal
  TGI: > 100 µM
A549 NSCLC
  TGI: > 100 µM
CAKI-1 renal
  TGI: > 100 µM
COLO 205 colon
  TGI: > 100 µM
EKVX NSCLC
  TGI: > 100 µM
HCT-15 colon
  TGI: > 100 µM
HT29 colon
  TGI: > 100 µM
M14 melanoma
  TGI: > 100 µM
NCI-H460 lung
  TGI: > 100 µM
NCI/ADR-RES ovarian
  TGI: > 100 µM
PC-3 prostate
  TGI: > 100 µM
SF-539 CNS
  TGI: > 100 µM
SK-MEL-28 melanoma
  TGI: > 100 µM
SN12C renal
  TGI: > 100 µM
SR leukemia
  TGI: > 100 µM
U251 CNS
  TGI: > 100 µM
UACC-257 melanoma
  TGI: > 100 µM

## C[C@H](CCC(=O)O[C@@H]1CC[C@@]2(C)C(CC[C@H]3[C@@H]4CC[C@H]([C@H](C)CCc5nc6ccccc6[nH]5)[C@@]4(C)CC[C@@H]32)C1)[C@H]1CC[C@H]2[C@@H]3CCC4C[C@H](O)CC[C@]4(C)[C@H]3CC[C@]12C (stereo partly drawn)
786-0 renal
  TGI: > 100 µM
A498 renal
  TGI: > 100 µM
A549 NSCLC
  TGI: > 100 µM
CAKI-1 renal
  TGI: > 100 µM
COLO 205 colon
  TGI: > 100 µM
EKVX NSCLC
  TGI: > 100 µM
HCT-15 colon
  TGI: > 100 µM
HT29 colon
  TGI: > 100 µM
M14 melanoma
  TGI: > 100 µM
NCI-H460 lung
  TGI: > 100 µM
NCI/ADR-RES ovarian
  TGI: > 100 µM
PC-3 prostate
  TGI: > 100 µM
SF-539 CNS
  TGI: > 100 µM
SK-MEL-28 melanoma
  TGI: > 100 µM
SN12C renal
  TGI: > 100 µM
SR leukemia
  TGI: > 100 µM
U251 CNS
  TGI: > 100 µM
UACC-257 melanoma
  TGI: > 100 µM

## COc1ccc(-c2nc(N)c(C#N)c3c2CCSc2ccc(C)cc2-3)cc1OC
786-0 renal
  TGI: > 61.1 µM
A498 renal
  TGI: > 63.2 µM
A549 NSCLC
  TGI: > 100 µM
CAKI-1 renal
  TGI: > 70.5 µM
COLO 205 colon
  TGI: 26.6 µM
EKVX NSCLC
  TGI: > 85.3 µM
HCT-15 colon
  TGI: > 73.1 µM
HT29 colon
  TGI: > 53.1 µM
M14 melanoma
  TGI: > 100 µM
NCI-H460 lung
  TGI: > 61.5 µM
NCI/ADR-RES ovarian
  TGI: > 58 µM
PC-3 prostate
  TGI: > 100 µM
SF-539 CNS
  TGI: 58.9 µM
SK-MEL-28 melanoma
  TGI: > 81.8 µM
SN12C renal
  TGI: 44.4 µM
SR leukemia
  TGI: 18.1 µM
U251 CNS
  TGI: > 100 µM
UACC-257 melanoma
  TGI: > 76.2 µM
